Source: article PMC3240959 (2011)

Biological target: T1, PfTrx-2 (Plasmodium falciparum thioredoxin-2, MAL13P1.225) (Plasmodium falciparum, UniProt Q8IDP4)
T1 sequence (Q8IDP4 28-157): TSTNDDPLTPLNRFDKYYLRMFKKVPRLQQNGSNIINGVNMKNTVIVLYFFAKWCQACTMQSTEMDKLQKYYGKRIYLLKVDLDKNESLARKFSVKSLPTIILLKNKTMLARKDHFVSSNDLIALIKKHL
Assay: insulin reduction
Assay type: biochemical

`O=C(O)CC([S][Au])C(=O)O` (racemic) [ATM, Aurothiomalate] gave an IC50 of about 20 µM.
